Assay results from patent publication US20220054513A1, “COMBINATION COMPOSITIONS COMPRISING A BETA-LACTAMASE INHIBITOR” (VenatoRx Pharmaceuticals, Inc., priority 2018, published 2022).
Where two headings read alike, the source gives them in different places.

How the values were obtained:
[1] = system: Acinetobacter baumannii-calcoaceticus species complex clinical isolates; experiment: MIC of triple combinations (Compound 1, sulbactam, meropenem or cefepime), 141 clinical isolates; assay type: cell-based; details: Acinetobacter, Cmpd 1 at 4 μg/mL in combinations, read-out: MIC
Description: For a more comprehensive assessment of the ability of test compounds to potentiate sulbactam in triple combinations with β-lactams additional MIC assays were utilized.

[2] = system: multi-drug resistant Acinetobacter baumannii; experiment: broth microdilution MIC of sulbactam, ampicillin, cefepime and combinations +/- Compound 1, panel of 51 Acinetobacter isolates

CO/N=C(\C(=O)N[C@@H]1C(=O)N2C(C(=O)[O-])=C(C[N+]3(C)CCCC3)CS[C@H]12)c1csc(N)n1 [FEP, cefepime]
MIC ([1]; strain 990089): 64 µg/mL
MIC ([1]; strain 993131): 64 µg/mL
MIC ([1]; strain 994180): 32 µg/mL
MIC ([1]; strain 996612): > 512 µg/mL
MIC ([1]; strain 996707): 64 µg/mL
MIC ([1]; strain 996869): 32 µg/mL
MIC ([1]; strain 997574): 16 µg/mL
MIC ([1]; strain 998532): 64 µg/mL
MIC ([1]; strain 998907): 8 µg/mL
MIC ([1]; strain 999306): 8 µg/mL
MIC ([1]; strain 1001611): 16 µg/mL
MIC ([1]; strain 1002208): 64 µg/mL
MIC ([1]; strain 1002247): > 512 µg/mL
MIC ([1]; strain 1002688): 64 µg/mL
MIC ([1]; strain 1002952): 64 µg/mL
MIC ([1]; strain 1003557): 64 µg/mL
MIC ([1]; strain 1003787): > 512 µg/mL
MIC ([1]; strain 1008510): 64 µg/mL
MIC ([1]; strain 1008730): 64 µg/mL
MIC ([1]; strain 1010245): 64 µg/mL
MIC ([1]; strain 1010331): > 512 µg/mL
MIC ([1]; strain 1010950): > 512 µg/mL
MIC ([1]; strain 1011959): 64 µg/mL
MIC ([1]; strain 1013022): 64 µg/mL
MIC ([1]; strain 1013035): 32 µg/mL
MIC ([1]; strain 1014143): 32 µg/mL
MIC ([1]; strain 1014646): 64 µg/mL
MIC ([1]; strain 1016836): 64 µg/mL
MIC ([1]; strain 1018109): 2 µg/mL
MIC ([1]; strain 1018801): > 512 µg/mL
MIC ([1]; strain 1023207): 32 µg/mL
MIC ([1]; strain 1024119): 32 µg/mL
MIC ([1]; strain 1024215): 32 µg/mL
MIC ([1]; strain 1027234): 64 µg/mL
MIC ([1]; strain 1027603): 64 µg/mL
MIC ([1]; strain 1027748): 32 µg/mL
MIC ([1]; strain 1028193): 32 µg/mL
MIC ([1]; strain 1029913): 32 µg/mL
MIC ([1]; strain 1030427): 32 µg/mL
MIC ([1]; strain 1030928): > 512 µg/mL
MIC ([1]; strain 1031191): 64 µg/mL
MIC ([1]; strain 1032669): 64 µg/mL
MIC ([1]; strain 1034880): 64 µg/mL
MIC ([1]; strain 1034912): 64 µg/mL
MIC ([1]; strain 1034925): 64 µg/mL
MIC ([1]; strain 1035788): 32 µg/mL
MIC ([1]; strain 1035794): 16 µg/mL
MIC ([1]; strain 1035825): 64 µg/mL
MIC ([1]; strain 1036045): 64 µg/mL
MIC ([1]; strain 1036068): 64 µg/mL
MIC ([1]; strain 1036768): > 512 µg/mL
MIC ([1]; strain 1036781): 32 µg/mL
MIC ([1]; strain 1036882): 16 µg/mL
MIC ([1]; strain 1036921): 32 µg/mL
MIC ([1]; strain 1037193): 32 µg/mL
MIC ([1]; strain 1037256): 32 µg/mL
MIC ([1]; strain 1037479): > 512 µg/mL
MIC ([1]; strain 1037714): 4 µg/mL
MIC ([1]; strain 1037732): 32 µg/mL
MIC ([1]; strain 1037738): 32 µg/mL
MIC ([1]; strain 1037747): > 512 µg/mL
MIC ([1]; strain 1039502): > 512 µg/mL
MIC ([1]; strain 1039515): 64 µg/mL
MIC ([1]; strain 1039518): 64 µg/mL
MIC ([1]; strain 1040900): 64 µg/mL
MIC ([1]; strain 1040917): > 512 µg/mL
MIC ([1]; strain 1042182): 32 µg/mL
MIC50 [2]: 32 µg/mL
MIC90 [2]: 128 µg/mL
MIC ([2]; read-out: Minimum inhibitory concentration (MIC), strain 0273 (ADC-25, OXA-23, OXA-66)): 32 µg/mL
MIC ([2]; read-out: Minimum inhibitory concentration (MIC), strain 0274 (TEM-1D, ADC-25, OXA-66, OXA-72)): 32 µg/mL
MIC ([2]; read-out: Minimum inhibitory concentration (MIC), strain 0275 (TEM-1D, ADC-25, OXA-23, OXA-66)): 32 µg/mL
MIC ([2]; read-out: Minimum inhibitory concentration (MIC), strain 0276 (enzyme content ND)): 128 µg/mL
MIC ([2]; read-out: Minimum inhibitory concentration (MIC), strain 0277 (TEM-1B, OXA-65, OXA-24)): 128 µg/mL
MIC ([2]; read-out: Minimum inhibitory concentration (MIC), strain 0278 (TEM-1D, ADC-25, OXA-23, OXA-66)): 32 µg/mL
MIC ([2]; read-out: Minimum inhibitory concentration (MIC), strain 0279 (TEM-1D, ADC-25, OXA-23, OXA-66)): 32 µg/mL
MIC ([2]; read-out: Minimum inhibitory concentration (MIC), strain 0280 (TEM-1D, ADC-25, OXA-66)): 16 µg/mL
MIC ([2]; read-out: Minimum inhibitory concentration (MIC), strain 0281 (TEM-1D, ADC-25, OXA-82)): 16 µg/mL
MIC ([2]; read-out: Minimum inhibitory concentration (MIC), strain 0282 (TEM-1D, ADC-25, OXA-23, OXA-66)): 64 µg/mL
MIC ([2]; read-out: Minimum inhibitory concentration (MIC), strain 0283 (TEM-1D, ADC-25, OXA-23, OXA-66)): 16 µg/mL
MIC ([2]; read-out: Minimum inhibitory concentration (MIC), strain 0284 (TEM-1B, OXA-65, OXA-24)): 32 µg/mL
MIC ([2]; read-out: Minimum inhibitory concentration (MIC), strain 0285 (TEM-1B, OXA-65, OXA-24)): 32 µg/mL
MIC ([2]; read-out: Minimum inhibitory concentration (MIC), strain 0286 (ADC-25, OXA-66, OXA-24)): 32 µg/mL
MIC ([2]; read-out: Minimum inhibitory concentration (MIC), strain 0287 (ADC-25, OXA-66, OXA-72)): 32 µg/mL
MIC ([2]; read-out: Minimum inhibitory concentration (MIC), strain 0288 (ADC-25, OXA-23, OXA-66)): 128 µg/mL
MIC ([2]; read-out: Minimum inhibitory concentration (MIC), strain 0289 (ADC-25, OXA-66, OXA-72)): 32 µg/mL
MIC ([2]; read-out: Minimum inhibitory concentration (MIC), strain 0290 (TEM-1D, ADC-25, OXA-23, OXA-66)): 32 µg/mL
MIC ([2]; read-out: Minimum inhibitory concentration (MIC), strain 0291 (TEM-1D, ADC-25, OXA-23, OXA-66)): 8 µg/mL
MIC ([2]; read-out: Minimum inhibitory concentration (MIC), strain 0292 (OXA-66, OXA-72)): 32 µg/mL
MIC ([2]; read-out: Minimum inhibitory concentration (MIC), strain 0293 (OXA-66, OXA-72)): 16 µg/mL
MIC ([2]; read-out: Minimum inhibitory concentration (MIC), strain 0294 (TEM-1B, OXA-23, OXA-65)): 32 µg/mL
MIC ([2]; read-out: Minimum inhibitory concentration (MIC), strain 0295 (TEM-1D, ADC-25, OXA-23, OXA-66)): 32 µg/mL
MIC ([2]; read-out: Minimum inhibitory concentration (MIC), strain 0296 (ADC-25, OXA-23, OXA-223)): 64 µg/mL
MIC ([2]; read-out: Minimum inhibitory concentration (MIC), strain 0297 (ADC-25, OXA-23, OXA-66)): 32 µg/mL
MIC ([2]; read-out: Minimum inhibitory concentration (MIC), strain 0298 (TEM-1D, ADC-25, OXA-66, OXA-237)): 32 µg/mL
MIC ([2]; read-out: Minimum inhibitory concentration (MIC), strain 0299 (PER-7, OXA-23, OXA-203)): 128 µg/mL
MIC ([2]; read-out: Minimum inhibitory concentration (MIC), strain 0300 (ADC-25, OXA-66)): 16 µg/mL
MIC ([2]; read-out: Minimum inhibitory concentration (MIC), strain 0301 (ADC-25, OXA-66, OXA-72)): 128 µg/mL
MIC ([2]; read-out: Minimum inhibitory concentration (MIC), strain 0302 (OXA-23, OXA-82)): 16 µg/mL
MIC ([2]; read-out: Minimum inhibitory concentration (MIC), strain 0303 (ADC-25, OXA-23, OXA-66)): 16 µg/mL
MIC ([2]; read-out: Minimum inhibitory concentration (MIC), strain 0304 (ADC-25, OXA-66, OXA-72)): 32 µg/mL
MIC ([2]; read-out: Minimum inhibitory concentration (MIC), strain 0305 (TEM-1B, OXA-65, OXA-24)): 16 µg/mL
MIC ([2]; read-out: Minimum inhibitory concentration (MIC), strain 0306 (TEM-1B, OXA-65, OXA-24)): 128 µg/mL
MIC ([2]; read-out: Minimum inhibitory concentration (MIC), strain 0307 (ADC-25, OXA-66, OXA-237)): 32 µg/mL
MIC ([2]; read-out: Minimum inhibitory concentration (MIC), strain 0308 (TEM-1D, ADC-25, OXA-71)): 16 µg/mL
MIC ([2]; read-out: Minimum inhibitory concentration (MIC), strain 0309 (OXA-23, OXA-82)): 64 µg/mL
MIC ([2]; read-out: Minimum inhibitory concentration (MIC), strain 0310 (OXA-23, OXA-82)): 32 µg/mL
MIC ([2]; read-out: Minimum inhibitory concentration (MIC), strain 0311 (ADC-25, OXA-23, OXA-82)): 128 µg/mL
MIC ([2]; read-out: Minimum inhibitory concentration (MIC), strain 0312 (OXA-69)): 32 µg/mL
MIC ([2]; read-out: Minimum inhibitory concentration (MIC), strain 0313 (TEM-1D, OXA-23, OXA-69)): 64 µg/mL
MIC ([2]; read-out: Minimum inhibitory concentration (MIC), strain 157834 (enzyme content ND)): 16 µg/mL
MIC ([2]; read-out: Minimum inhibitory concentration (MIC), strain 157842 (enzyme content ND)): 4 µg/mL
MIC ([2]; read-out: Minimum inhibitory concentration (MIC), strain 157876 (enzyme content ND)): 8 µg/mL
MIC ([2]; read-out: Minimum inhibitory concentration (MIC), strain 157901 (enzyme content ND)): 16 µg/mL
MIC ([2]; read-out: Minimum inhibitory concentration (MIC), strain 161750 (enzyme content ND)): 128 µg/mL
MIC ([2]; read-out: Minimum inhibitory concentration (MIC), strain 161752 (enzyme content ND)): 16 µg/mL
MIC ([2]; read-out: Minimum inhibitory concentration (MIC), strain 161755 (enzyme content ND)): 8 µg/mL
MIC ([2]; read-out: Minimum inhibitory concentration (MIC), strain 161756 (enzyme content ND)): 8 µg/mL
MIC ([2]; read-out: Minimum inhibitory concentration (MIC), strain 161760 (enzyme content ND)): 32 µg/mL
MIC ([2]; read-out: Minimum inhibitory concentration (MIC), strain 161762 (enzyme content ND)): 8 µg/mL
